This note sets out measurements from patent publication US20260055114A1, “IMIDAZO[1,2-B]PYRIDAZINE INHIBITORS OF CYCLIN-DEPENDENT KINASES” (H. LEE MOFFITT CANCER CENTER AND RESEARCH INSTITUTE, INC., priority 2022, published 2026).

Usually DC50 stands for the midpoint of the concentration-degradation curve. As usually defined, the IC50 is the concentration that inhibits the measured activity by half. Read a low IC50 as inhibition by little substance. A word on the remaining activity: it is the activity still measured, relative to the control. One may read the GI50 as the concentration that inhibits growth by half.

The subject of one experiment is CCNK. In words: CCNK degradation (DC50, Dmax). To be noted: for Dmax (%): CCNK degradation. Type of experiment: cell-based.
The next experiment deals with CDK12 (Homo sapiens, UniProt Q9NYV4). In words: Inhibition of cyclin-dependent kinase 12 (% enzyme activity at 1 uM and IC50). Type of experiment: biochemical. To be noted: for remaining activity at 1 µM: 1 uM compound.
Another experiment deals with MDA-MB-231 cell line. In words: Antiproliferative activity, MDA-MB-231 cell line (GI50). Type of experiment: cell-based. To be noted: Homo sapiens.

Sequence of CDK12 (Q9NYV4 whole entry): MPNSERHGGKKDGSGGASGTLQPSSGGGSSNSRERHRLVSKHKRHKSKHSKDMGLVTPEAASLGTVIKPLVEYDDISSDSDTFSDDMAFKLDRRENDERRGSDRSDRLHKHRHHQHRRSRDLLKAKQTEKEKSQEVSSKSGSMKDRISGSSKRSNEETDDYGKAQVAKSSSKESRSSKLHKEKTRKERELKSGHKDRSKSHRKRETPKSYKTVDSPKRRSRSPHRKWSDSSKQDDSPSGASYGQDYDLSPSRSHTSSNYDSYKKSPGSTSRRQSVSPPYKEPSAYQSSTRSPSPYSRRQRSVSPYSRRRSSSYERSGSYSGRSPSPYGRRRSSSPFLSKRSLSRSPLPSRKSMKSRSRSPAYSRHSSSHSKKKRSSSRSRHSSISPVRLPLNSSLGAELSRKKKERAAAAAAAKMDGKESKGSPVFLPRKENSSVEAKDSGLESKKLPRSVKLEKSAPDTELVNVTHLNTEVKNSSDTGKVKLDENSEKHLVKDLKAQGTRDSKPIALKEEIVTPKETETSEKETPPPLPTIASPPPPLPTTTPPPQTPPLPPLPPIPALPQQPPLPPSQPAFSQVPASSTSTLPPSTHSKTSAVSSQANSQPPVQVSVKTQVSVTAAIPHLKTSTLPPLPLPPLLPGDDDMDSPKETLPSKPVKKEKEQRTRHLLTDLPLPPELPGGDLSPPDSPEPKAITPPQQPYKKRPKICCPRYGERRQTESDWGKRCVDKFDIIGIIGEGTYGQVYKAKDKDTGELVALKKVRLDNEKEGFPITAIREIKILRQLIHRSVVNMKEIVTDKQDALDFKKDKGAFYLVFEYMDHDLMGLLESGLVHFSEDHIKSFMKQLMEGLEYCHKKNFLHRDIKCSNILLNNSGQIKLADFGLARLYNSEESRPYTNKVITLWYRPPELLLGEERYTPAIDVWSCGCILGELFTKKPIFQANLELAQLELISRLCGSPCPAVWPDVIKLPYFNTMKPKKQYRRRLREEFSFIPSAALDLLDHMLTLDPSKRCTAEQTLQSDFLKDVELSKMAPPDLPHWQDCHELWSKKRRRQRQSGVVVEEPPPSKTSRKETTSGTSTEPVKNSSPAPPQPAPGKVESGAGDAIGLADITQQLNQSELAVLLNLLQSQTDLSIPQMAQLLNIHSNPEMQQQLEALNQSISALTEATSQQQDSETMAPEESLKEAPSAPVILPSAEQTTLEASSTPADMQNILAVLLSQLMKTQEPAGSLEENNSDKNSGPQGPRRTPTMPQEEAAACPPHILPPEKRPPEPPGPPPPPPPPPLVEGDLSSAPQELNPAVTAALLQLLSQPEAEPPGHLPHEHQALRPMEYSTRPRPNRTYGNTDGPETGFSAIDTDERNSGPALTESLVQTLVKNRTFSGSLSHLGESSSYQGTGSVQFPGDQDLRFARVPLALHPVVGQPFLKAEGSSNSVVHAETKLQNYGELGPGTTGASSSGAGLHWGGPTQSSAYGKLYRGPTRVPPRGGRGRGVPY
Sequence of CDK12 (O75909 whole entry partner): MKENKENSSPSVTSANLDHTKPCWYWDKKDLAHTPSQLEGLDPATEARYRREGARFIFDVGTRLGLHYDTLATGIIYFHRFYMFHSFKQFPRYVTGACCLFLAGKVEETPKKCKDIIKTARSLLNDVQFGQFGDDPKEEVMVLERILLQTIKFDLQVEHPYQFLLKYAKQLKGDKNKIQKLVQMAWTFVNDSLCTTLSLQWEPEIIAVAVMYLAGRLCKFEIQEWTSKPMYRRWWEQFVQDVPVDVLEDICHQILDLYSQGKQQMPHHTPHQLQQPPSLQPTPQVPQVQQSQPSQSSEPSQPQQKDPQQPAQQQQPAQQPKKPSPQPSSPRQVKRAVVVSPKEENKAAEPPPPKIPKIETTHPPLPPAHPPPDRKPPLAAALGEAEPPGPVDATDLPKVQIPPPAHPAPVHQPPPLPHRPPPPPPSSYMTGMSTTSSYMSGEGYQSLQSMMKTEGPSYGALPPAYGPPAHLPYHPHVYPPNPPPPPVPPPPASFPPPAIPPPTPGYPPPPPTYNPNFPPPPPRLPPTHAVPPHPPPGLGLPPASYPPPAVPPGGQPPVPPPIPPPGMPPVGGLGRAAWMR

As for `Cc1ccnc2[nH]c(CNc3cc(N4CCOCC4)nn4c(-c5cnn(C(C)C)c5)cnc34)nc12` [Cmpd 21, 3-(1-isopropyl-1H-pyrazol-4-yl)-N-((7-methyl-3H-imidazo[4,5-b]pyridin-2-yl)methyl)-6-morpholinoimidazo[1,2-b]pyridazin-8-amine], the DC50 in the experiment with CCNK was found to be 10000 nM. At CDK12, this molecule registered an IC50 of 722 nM and a remaining activity at 1 µM of 34%. The molecule further came in with a GI50 in the experiment with MDA-MB-231 cell line of 10000 nM.
The molecule `Cc1noc(C)c1-c1cnc2c(NCc3nc4cc(Cl)c(Cl)cc4[nH]3)cc(N3CCOCC3)nn12` [Cmpd 100, N-((5,6-dichloro-1H-benzo[d]imidazol-2-yl)methyl)-3-(3,5-dimethylisoxazol-4-yl)-6-morpholinoimidazo[1,2-b]pyridazin-8-amine] came in with a DC50 with CCNK of 10000 nM. Also, on CDK12, the IC50 was determined as 3000 nM and the remaining activity at 1 µM came out at 73%. For the same molecule, in the experiment with MDA-MB-231 cell line, the GI50 turned out to be 2030 nM.
For `N#Cc1cc(-c2cnc3c(NCc4nc5cc(Cl)c(Cl)cc5[nH]4)cc(N4CCOCC4)nn23)cs1` [Cmpd 80, 4-(8-(((5,6-dichloro-1H-benzo[d]imidazol-2-yl)methyl)amino)-6-morpholinoimidazo[1,2-b]pyridazin-3-yl)thiophene-2-carbonitrile], in the experiment on CCNK, the DC50 is 1000 nM and the “Dmax (%)” value is on record as 95%. For the same molecule, at CDK12, the midpoint of inhibition, the IC50, lay at 3000 nM and the remaining activity at 1 µM came to 75%. Besides, the GI50 with MDA-MB-231 cell line was 867 nM.
As for `Cn1cc(-c2cnc3c(NCc4nc5cc(Cl)c(Cl)cc5[nH]4)cc(N4CCOCC4)nn23)cn1` [Cmpd 9, N-((5,6-dichloro-1H-benzo[d]imidazol-2-yl)methyl)-3-(1-methyl-1H-pyrazol-4-yl)-6-morpholinoimidazo[1,2-b]pyridazin-8-amine], in the experiment with CCNK, half-maximal degradation (DC50) was put at 680 nM and the “Dmax (%)” value is given as 95%. The molecule further displayed an IC50 against CDK12 of 9560 nM. The same molecule showed a GI50 in the experiment on MDA-MB-231 cell line of 564 nM.
`CN1CCN(c2cc(NCc3nc4c(F)cccc4[nH]3)c3ncc(-c4cnn(C(F)F)c4)n3n2)CC1` [Cmpd 51, 3-(1-(difluoromethyl)-1H-pyrazol-4-yl)-N-((4-fluoro-1H-benzo[d]imidazol-2-yl)methyl)-6-(4-methylpiperazin-1-yl) imidazo[1,2-b]pyridazin-8-amine]: in the experiment with CCNK, the DC50 was 1900 nM and the “Dmax (%)” value worked out at 50%. The molecule further yielded a remaining activity at 1 µM at CDK12 of 55%. This molecule displayed a concentration for 50% growth inhibition (GI50) with MDA-MB-231 cell line of 5130 nM.
Take `CN1CCN(c2cc(NCc3nc4cc(Cl)c(Cl)cc4[nH]3)c3ncc(-c4csc(C#N)c4)n3n2)CC1` [Cmpd 79, 4-(8-(((5,6-dichloro-1H-benzo[d]imidazol-2-yl)methyl)amino)-6-(4-methylpiperazin-1-yl)imidazo[1,2-b]pyridazin-3-yl)thiophene-2-carbonitrile]: in the experiment on CCNK, half-maximal degradation (DC50) was put at 1700 nM and the “Dmax (%)” value is reported as 75%. At CDK12, this molecule registered an IC50 of 5000 nM and a remaining activity at 1 µM of 80%. The same molecule showed a concentration for 50% growth inhibition (GI50) in the experiment on MDA-MB-231 cell line of 1470 nM.
`Cn1cc(-c2cnc3c(NCc4nc5c(F)c(F)ccc5[nH]4)cc(N4CCOCC4)nn23)cn1` [Cmpd 6, N-((4,5-difluoro-1H-benzo[d]imidazol-2-yl)methyl)-3-(1-methyl-1H-pyrazol-4-yl)-6-morpholinoimidazo[1,2-b]pyridazin-8-amine]: in the experiment on CCNK, the DC50 is 460 nM and the “Dmax (%)” value amounted to 75%. The molecule further yielded an IC50 at CDK12 of 3000 nM. In the experiment on MDA-MB-231 cell line, the GI50 turned out to be 3840 nM.
For `CN1CCC(Nc2cc(NCc3nc4cc(Cl)c(Cl)cc4[nH]3)c3ncc(-c4cnn(C(F)F)c4)n3n2)CC1` [Cmpd 46, N8-((5,6-dichloro-1H-benzo[d]imidazol-2-yl)methyl)-3-(1-(difluoromethyl)-1H-pyrazol-4-yl)-N6-(1-methylpiperidin-4-yl) imidazo[1,2-b]pyridazine-6,8-diamine] the same measures were 180 nM, 100%, 68 nM and 25 nM.
Take `NC1CCN(c2cc(NCc3nc4cccc(Cl)c4[nH]3)c3ncc(-c4ccsc4)n3n2)C1` (centres unmarked) [Cmpd 69, 6-(3-aminopyrrolidin-1-yl)-N-((7-chloro-1H-benzo[d]imidazol-2-yl)methyl)-3-(thiophen-3-yl) imidazo[1,2-b]pyridazin-8-amine]: in the experiment on CCNK, the DC50 turned out to be 150 nM and the “Dmax (%)” value is recorded as 85%. The molecule also yielded an IC50 against CDK12 of 57 nM. This molecule also gave a concentration for 50% growth inhibition (GI50) with MDA-MB-231 cell line of 92 nM.
Consider `Clc1cccc2nc(CNc3cc(NC4CCNCC4)nn4c(-c5ccsc5)cnc34)[nH]c12` [Cmpd 72, N8-((7-chloro-1H-benzo[d]imidazol-2-yl)methyl)-N6-(piperidin-4-yl)-3-(thiophen-3-yl) imidazo[1,2-b]pyridazine-6,8-diamine], for which, in the experiment with CCNK, half-maximal degradation (DC50) was put at 50 nM and the “Dmax (%)” value came to 100%. The molecule also came in with an IC50 against CDK12 of 56 nM. This molecule also displayed a GI50 with MDA-MB-231 cell line of 49 nM.
`Cc1cc(-c2cnc3c(NCc4nc5c(C)ccnc5[nH]4)cc(N4CCN(C)CC4)nn23)cs1` [Cmpd 90, N-((7-methyl-3H-imidazo[4,5-b]pyridin-2-yl)methyl)-6-(4-methylpiperazin-1-yl)-3-(5-methylthiophen-3-yl) imidazo[1,2-b]pyridazin-8-amine] yielded a DC50 with CCNK of 10000 nM. On CDK12, the IC50 was found to be 1410 nM and the remaining activity at 1 µM was determined as 36%. In the experiment with MDA-MB-231 cell line, this molecule had a GI50 of 4160 nM.
Consider `CN1CCN(c2cc(NCc3nc4cc(Cl)c(Cl)cc4[nH]3)c3ncc(-c4ccsc4)n3n2)CC1` [Cmpd 63, N-((5,6-dichloro-1H-benzo[d]imidazol-2-yl)methyl)-6-(4-methylpiperazin-1-yl)-3-(thiophen-3-yl) imidazo[1,2-b]pyridazin-8-amine], for which, in the experiment on CCNK, it took 180 nM to reach half-maximal degradation (DC50) and the “Dmax (%)” value is 100%. This molecule also showed an IC50 against CDK12 of 2010 nM. In the experiment with MDA-MB-231 cell line, this molecule registered a GI50 of 78 nM.
Take `CN1CCN(c2cc(NCc3nc4c(F)c(F)ccc4[nH]3)c3ncc(-c4ccsc4)n3n2)CC1` [Cmpd 78, N-((4,5-difluoro-1H-benzo[d]imidazol-2-yl)methyl)-6-(4-methylpiperazin-1-yl)-3-(thiophen-3-yl) imidazo[1,2-b]pyridazin-8-amine]: in the experiment with CCNK, half-maximal degradation (DC50) was put at 260 nM and the “Dmax (%)” value amounted to 80%. Besides, on CDK12, the IC50 came to 473 nM and the remaining activity at 1 µM stood at 24%. Besides, it took 425 nM to inhibit growth with MDA-MB-231 cell line by half (GI50).
For the molecule `Fc1ccc2[nH]c(CNc3cc(N4CCOCC4)nn4c(-c5cnn(C6CC6)c5)cnc34)nc2c1F` [Cmpd 39, 3-(1-cyclopropyl-1H-pyrazol-4-yl)-N-((4,5-difluoro-1H-benzo[d]imidazol-2-yl)methyl)-6-morpholinoimidazo[1,2-b]pyridazin-8-amine], in the experiment on CCNK, it took 920 nM to reach half-maximal degradation (DC50) and the “Dmax (%)” value worked out at 80%. In addition, the remaining activity at 1 µM on CDK12 was 61%. The molecule also came in with a GI50 with MDA-MB-231 cell line of 10000 nM.
`CN1CCN(c2cc(NCc3nc4c(F)c(F)ccc4[nH]3)c3ncc(-c4cnn(C5CC5)c4)n3n2)CC1` [Cmpd 38, 3-(1-cyclopropyl-1H-pyrazol-4-yl)-N-((4,5-difluoro-1H-benzo[d]imidazol-2-yl)methyl)-6-(4-methylpiperazin-1-yl) imidazo[1,2-b]pyridazin-8-amine]: in the experiment with CCNK, the DC50 was found to be 1600 nM and the “Dmax (%)” value was determined as 65%. For the same molecule, the remaining activity at 1 µM at CDK12 came to 53%. The GI50 in the experiment on MDA-MB-231 cell line turned out to be 5430 nM.
Regarding `Cc1ccnc2[nH]c(CNc3cc(N4CCOCC4)nn4c(-c5cnn(C(F)F)c5)cnc34)nc12` [Cmpd 58, 3-(1-(difluoromethyl)-1H-pyrazol-4-yl)-N-((7-methyl-3H-imidazo[4,5-b]pyridin-2-yl)methyl)-6-morpholinoimidazo[1,2-b]pyridazin-8-amine], in the experiment with CCNK, the DC50 is 260 nM and the “Dmax (%)” value amounted to 100%. For the same molecule, on CDK12, half-maximal inhibition (IC50) required 65 nM. Further, in the experiment with MDA-MB-231 cell line, halving of growth (GI50) required 406 nM.
As for `Cc1ccnc2[nH]c(CNc3cc(N4CCN(C)CC4)nn4c(-c5cnn(C(C)C)c5)cnc34)nc12` [Cmpd 20, 3-(1-isopropyl-1H-pyrazol-4-yl)-N-((7-methyl-3H-imidazo[4,5-b]pyridin-2-yl)methyl)-6-(4-methylpiperazin-1-yl) imidazo[1,2-b]pyridazin-8-amine], half-maximal degradation in the experiment on CCNK (DC50) was put at 10000 nM. Moreover, on CDK12, the concentration for half-maximal inhibition (IC50) came out at 531 nM and the remaining activity at 1 µM was 30%. Halving of growth with MDA-MB-231 cell line (GI50) required 6670 nM.
As to `Cc1cc(-c2cnc3c(NCc4nc5c(F)c(F)ccc5[nH]4)cc(N4CCN(C)CC4)nn23)cs1` [Cmpd 96, N-((4,5-difluoro-1H-benzo[d]imidazol-2-yl)methyl)-6-(4-methylpiperazin-1-yl)-3-(5-methylthiophen-3-yl) imidazo[1,2-b]pyridazin-8-amine], in the experiment on CCNK, the DC50 was 1800 nM and the “Dmax (%)” value was found to be 75%. For the same molecule, the remaining activity at 1 µM at CDK12 is 63%. In the experiment on MDA-MB-231 cell line, this molecule returned a GI50 of 3110 nM.
As to `Cc1noc(C)c1-c1cnc2c(NCc3nc4cc(Cl)c(Cl)cc4[nH]3)cc(N3CCN(C)CC3)nn12` [Cmpd 99, N-((5,6-dichloro-1H-benzo[d]imidazol-2-yl)methyl)-3-(3,5-dimethylisoxazol-4-yl)-6-(4-methylpiperazin-1-yl) imidazo[1,2-b]pyridazin-8-amine], the DC50 in the experiment with CCNK was 10000 nM. Also, at CDK12, the IC50 was 1250 nM and the remaining activity at 1 µM worked out at 59%. In the experiment on MDA-MB-231 cell line, this molecule showed a 50% growth inhibitory concentration (GI50) of 689 nM.
As to `Cc1cc(-c2cnc3c(NCc4nc5cccc(Cl)c5[nH]4)cc(N4CCOCC4)nn23)cs1` [Cmpd 85, N-((7-chloro-1H-benzo[d]imidazol-2-yl)methyl)-3-(5-methylthiophen-3-yl)-6-morpholinoimidazo[1,2-b]pyridazin-8-amine], in the experiment on CCNK, the DC50 turned out to be 1200 nM and the “Dmax (%)” value amounted to 85%. Moreover, the remaining activity at 1 µM at CDK12 stood at 73%. In addition, the GI50 with MDA-MB-231 cell line came out at 3910 nM.
